Results as given in patent US10300058B2, “Tyrosine kinase inhibitor and uses thereof” (Xuanzhu Pharma Co., Ltd., priority 2014, dated 2019).
Each block holds one compound with its values, some of them ahead of it.

How the values were obtained:
wild-type EGFR (WT EGFR) = wild-type EGFR (WT EGFR) (Homo sapiens (Human), UniProt P00533); experiment: Mobility Shift Assay, in vitro enzyme-inhibiting activity, wild-type EGFR; assay type: biochemical; settings: Km ATP
Description: (§1) 1. Preparation of Reagents
(§2) 2. Preparation of a Compound Solution
(§3) (1) To the second well of a 96-well plate, 5 μL 10 mM compound (dissolved in DMSO) was added, and 95 μL 100% DMSO was added to prepare 100 μL 0.5 mM compound.
(§4) (2) To other wells, 60 μL 100% DMSO was added. 20 μL compound from the second well was added to the third well, and 4-fold dilution was further performed to get 10 diluted concentrations.
(§5) (3) To the first well and the twelfth well of the 96-well plate, 100 μL 100% DMSO was separately added, and the two wells were used as control wells.
(§6) (4) 10 μL from each well of the 96-well plate was added to another 96-well plate, and 90 μL 1-fold kinase buffer was added.
(§7) (5) 5 μL from the 96-well plate was added to another 384-well plate, for example, transferred from A1 well of the 96-well plate to A1 and A2 wells of the 384-well plate, and transferred from A2 well of the 96-well plate to A3 and A4 wells of the 384-well plate, and so on.
(§8) To 384-well plate, 10 μL 2.5-fold enzyme solution was added, and incubated at room temperature for 10 min.
(§9) (5) Kinase reaction and stop
(§10) After incubation at 28° C. for a period of time (depending on kinase), 25 μL stop solution was added.
(§11) 4. Data on percent conversion was read by Caliper.
(§12) (1) Data on enzyme activity was obtained by Caliper program;
(§13) (2) Inhibition rate of enzyme activity was calculated from the data on enzyme activity by the following formula: Inhibition rate(%)=(maximal value−the measured value of a test compound)/(maximal value-minimal value)×100,
(§14) wherein, the maximal value represents the measured value of DMSO control; and the minimal value represents the measured value of blank control.
(§15) (3) Calculation of IC50 value by XLFit excel.

[1] = test system: H1975 cell (EGFR-T790M/L858R double mutation); experiment: In vitro cytologic activity, Celltiter-Glo, H1975 cells; assay type: cell-based, human; settings: Table 10; for IC50: Homo sapiens, NCI-H1975, 72 h, 72 h, Celltiter-Glo, unit inferred; for Selectivity (A431/H1975): ratio of IC50
Description: (§16) 1.1 Preparation of Cell Suspension
(§17) Culture medium was removed from culture bottle;
(§18) PBS was added to wash the cells; • pancreatin was added for digestion, and the cells were collected by centrifugation; • the cells were resuspended in a culture medium containing 10% fetal bovine serum, counted and adjusted to a concentration of 2×10^4/mL or 3×10^4/mL (cell viability must be greater than 90%); • the cell suspension was added to a 96-well plate, at 100 μL for each well, i.e., 2000/well for H1975 cell; 3000/well for A431 cell; and • the cells were cultured at 37° C. in 5% CO2 incubator overnight.
(§19) Dilution of a compound in DMSO (or water for injection) • (1) The compound was 5-fold diluted with DMSO from 10 mM to 2 mM, and then 4-fold diluted from 2 mM, to get 10 concentrations; • High control (HC, control without compound inhibition): 0.5% DMSO; • Low control (LC, control with compound inhibition): 1000 nM.
(§20) i. To each well, 99 μL growth medium containing 10% FBS was added, and then 1 μL diluted compound was added, the total volume of the well was […], and the final concentration of the compound was measured.
(§21) The test plate was left at room temperature, and equilibrated for 30 min. 80 μL culture medium was discarded. 60 μL CTG reagent (Celltiter-Glo kit) was added, and shaked for 2 min in a fast shaker, and was placed at room temperature for 10 min. The values were read by Envision instrument.

[2] = test system: A431 cell (wild-type EGFR gene); experiment: In vitro cytologic activity, Celltiter-Glo, A431 cells; assay type: cell-based; settings: Homo sapiens, A-431, 72 h, Table 10, unit inferred
Description: as §16, §17, §18, §19, §20, §21

EGFR T790M = EGFR T790M (Homo sapiens (Human), UniProt P00533, T790M); experiment: Mobility Shift Assay, in vitro enzyme-inhibiting activity, EGFR T790M; assay type: biochemical; settings: for IC50: Km ATP; for Selectivity (WT/T790M): ratio of IC50
Description: as §1, §2, §3, §4, §5, §6, §7, §8, §9, §10, §11, §12, §13, §14, §15

EGFR (d746-750) = EGFR (d746-750) (Homo sapiens (Human), UniProt P00533, DEL746-750); experiment: Mobility Shift Assay, in vitro enzyme-inhibiting activity, EGFR (d746-750); assay type: biochemical; settings: for IC50: Km ATP; for Selectivity WT/d746-750: ratio of IC50
EGFR (d746-750), sequence (P00533 other isoform, or with tags, fused parts or gaps del 1-668/del 746-750 limits assumed): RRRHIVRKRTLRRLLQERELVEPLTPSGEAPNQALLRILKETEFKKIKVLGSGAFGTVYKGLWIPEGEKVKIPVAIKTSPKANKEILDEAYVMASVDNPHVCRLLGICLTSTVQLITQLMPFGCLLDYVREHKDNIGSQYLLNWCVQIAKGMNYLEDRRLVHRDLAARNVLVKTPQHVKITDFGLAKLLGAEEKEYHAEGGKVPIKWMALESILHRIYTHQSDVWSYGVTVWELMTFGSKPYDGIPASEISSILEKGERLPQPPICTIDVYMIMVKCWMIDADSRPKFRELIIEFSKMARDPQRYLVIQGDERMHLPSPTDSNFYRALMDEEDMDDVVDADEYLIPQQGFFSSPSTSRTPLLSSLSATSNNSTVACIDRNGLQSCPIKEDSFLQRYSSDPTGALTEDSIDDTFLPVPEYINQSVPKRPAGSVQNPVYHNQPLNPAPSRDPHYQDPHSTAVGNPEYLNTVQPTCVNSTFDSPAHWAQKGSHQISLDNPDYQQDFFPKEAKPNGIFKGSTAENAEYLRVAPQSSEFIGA
Description: as §1, §2, §3, §4, §5, §6, §7, §8, §9, §10, §11, §12, §13, §14, §15

EGFR L858R = EGFR L858R (Homo sapiens (Human), UniProt P00533, L858R); experiment: Mobility Shift Assay, in vitro enzyme-inhibiting activity, EGFR L858R; assay type: biochemical; settings: for IC50: Km ATP; for Selectivity WT/L858R: ratio of IC50
EGFR L858R, sequence (P00533 25-1210 L858R): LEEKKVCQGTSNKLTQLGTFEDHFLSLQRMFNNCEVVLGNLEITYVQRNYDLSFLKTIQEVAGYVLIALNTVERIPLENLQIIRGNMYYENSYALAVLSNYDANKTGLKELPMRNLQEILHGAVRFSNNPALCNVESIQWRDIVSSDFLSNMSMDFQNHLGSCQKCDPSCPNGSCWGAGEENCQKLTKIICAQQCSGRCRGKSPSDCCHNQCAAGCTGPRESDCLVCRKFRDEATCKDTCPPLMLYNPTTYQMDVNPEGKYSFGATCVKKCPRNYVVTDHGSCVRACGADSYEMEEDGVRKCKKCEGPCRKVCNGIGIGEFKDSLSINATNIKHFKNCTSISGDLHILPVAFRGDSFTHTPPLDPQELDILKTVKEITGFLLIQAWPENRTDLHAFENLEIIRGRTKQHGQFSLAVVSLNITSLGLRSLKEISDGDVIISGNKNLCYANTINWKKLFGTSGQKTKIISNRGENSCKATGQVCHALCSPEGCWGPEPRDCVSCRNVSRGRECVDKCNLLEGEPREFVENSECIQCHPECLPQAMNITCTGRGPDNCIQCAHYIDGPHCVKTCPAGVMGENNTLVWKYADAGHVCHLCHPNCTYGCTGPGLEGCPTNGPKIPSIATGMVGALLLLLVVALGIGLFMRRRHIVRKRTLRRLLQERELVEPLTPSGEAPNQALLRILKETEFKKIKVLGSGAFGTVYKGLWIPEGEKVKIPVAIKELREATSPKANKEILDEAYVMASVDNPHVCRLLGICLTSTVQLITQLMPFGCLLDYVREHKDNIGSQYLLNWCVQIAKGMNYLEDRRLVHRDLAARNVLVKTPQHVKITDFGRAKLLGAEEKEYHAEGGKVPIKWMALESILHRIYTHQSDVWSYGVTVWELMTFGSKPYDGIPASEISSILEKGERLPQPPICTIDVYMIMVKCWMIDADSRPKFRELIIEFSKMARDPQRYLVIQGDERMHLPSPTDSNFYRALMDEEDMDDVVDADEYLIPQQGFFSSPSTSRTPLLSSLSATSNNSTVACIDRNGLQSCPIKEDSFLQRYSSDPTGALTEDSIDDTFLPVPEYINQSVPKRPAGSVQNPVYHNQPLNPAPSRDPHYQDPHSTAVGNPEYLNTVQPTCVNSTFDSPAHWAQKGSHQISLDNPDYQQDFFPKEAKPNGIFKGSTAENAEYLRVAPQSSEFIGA
Description: as §1, §2, §3, §4, §5, §6, §7, §8, §9, §10, §11, §12, §13, §14, §15

EGFR T790M-L858R = EGFR T790M-L858R (Homo sapiens (Human), UniProt P00533, L858R/T790M); experiment: Mobility Shift Assay, in vitro enzyme-inhibiting activity, EGFR T790M-L858R; assay type: biochemical; settings: for IC50: Km ATP; for Selectivity WT/T790M-L858R: ratio of IC50
EGFR T790M-L858R, sequence (P00533 25-1210 T790M/L858R): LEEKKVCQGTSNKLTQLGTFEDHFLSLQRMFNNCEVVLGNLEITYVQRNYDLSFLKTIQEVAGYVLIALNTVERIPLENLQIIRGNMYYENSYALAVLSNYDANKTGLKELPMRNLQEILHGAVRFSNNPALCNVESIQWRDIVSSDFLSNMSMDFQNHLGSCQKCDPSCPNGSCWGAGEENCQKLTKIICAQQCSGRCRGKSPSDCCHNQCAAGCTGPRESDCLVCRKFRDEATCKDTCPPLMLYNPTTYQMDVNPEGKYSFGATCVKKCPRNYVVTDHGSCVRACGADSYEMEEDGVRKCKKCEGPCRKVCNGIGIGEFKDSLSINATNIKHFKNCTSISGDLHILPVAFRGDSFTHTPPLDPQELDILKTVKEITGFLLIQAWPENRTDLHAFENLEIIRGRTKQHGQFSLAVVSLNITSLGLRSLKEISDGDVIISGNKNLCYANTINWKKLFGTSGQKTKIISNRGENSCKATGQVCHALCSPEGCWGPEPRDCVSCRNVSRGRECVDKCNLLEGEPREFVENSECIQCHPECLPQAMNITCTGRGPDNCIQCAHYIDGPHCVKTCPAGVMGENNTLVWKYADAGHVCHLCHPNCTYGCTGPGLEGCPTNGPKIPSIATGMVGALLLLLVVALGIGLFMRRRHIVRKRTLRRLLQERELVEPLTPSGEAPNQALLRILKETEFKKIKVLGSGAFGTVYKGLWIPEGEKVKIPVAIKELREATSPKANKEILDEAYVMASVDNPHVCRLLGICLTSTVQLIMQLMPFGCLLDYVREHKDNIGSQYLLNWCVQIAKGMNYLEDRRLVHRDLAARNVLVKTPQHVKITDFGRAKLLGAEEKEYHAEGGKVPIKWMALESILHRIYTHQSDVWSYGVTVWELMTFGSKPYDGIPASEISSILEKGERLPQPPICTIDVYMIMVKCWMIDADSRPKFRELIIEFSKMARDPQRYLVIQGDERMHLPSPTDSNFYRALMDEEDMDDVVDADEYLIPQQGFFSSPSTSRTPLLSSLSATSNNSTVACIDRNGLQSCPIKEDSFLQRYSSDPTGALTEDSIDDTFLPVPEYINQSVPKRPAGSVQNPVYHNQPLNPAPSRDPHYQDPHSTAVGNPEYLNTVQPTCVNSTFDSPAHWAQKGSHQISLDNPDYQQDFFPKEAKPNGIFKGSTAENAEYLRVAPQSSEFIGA
Description: as §1, §2, §3, §4, §5, §6, §7, §8, §9, §10, §11, §12, §13, §14, §15

wild-type EGFR (WT EGFR), sequence (P00533 25-1210): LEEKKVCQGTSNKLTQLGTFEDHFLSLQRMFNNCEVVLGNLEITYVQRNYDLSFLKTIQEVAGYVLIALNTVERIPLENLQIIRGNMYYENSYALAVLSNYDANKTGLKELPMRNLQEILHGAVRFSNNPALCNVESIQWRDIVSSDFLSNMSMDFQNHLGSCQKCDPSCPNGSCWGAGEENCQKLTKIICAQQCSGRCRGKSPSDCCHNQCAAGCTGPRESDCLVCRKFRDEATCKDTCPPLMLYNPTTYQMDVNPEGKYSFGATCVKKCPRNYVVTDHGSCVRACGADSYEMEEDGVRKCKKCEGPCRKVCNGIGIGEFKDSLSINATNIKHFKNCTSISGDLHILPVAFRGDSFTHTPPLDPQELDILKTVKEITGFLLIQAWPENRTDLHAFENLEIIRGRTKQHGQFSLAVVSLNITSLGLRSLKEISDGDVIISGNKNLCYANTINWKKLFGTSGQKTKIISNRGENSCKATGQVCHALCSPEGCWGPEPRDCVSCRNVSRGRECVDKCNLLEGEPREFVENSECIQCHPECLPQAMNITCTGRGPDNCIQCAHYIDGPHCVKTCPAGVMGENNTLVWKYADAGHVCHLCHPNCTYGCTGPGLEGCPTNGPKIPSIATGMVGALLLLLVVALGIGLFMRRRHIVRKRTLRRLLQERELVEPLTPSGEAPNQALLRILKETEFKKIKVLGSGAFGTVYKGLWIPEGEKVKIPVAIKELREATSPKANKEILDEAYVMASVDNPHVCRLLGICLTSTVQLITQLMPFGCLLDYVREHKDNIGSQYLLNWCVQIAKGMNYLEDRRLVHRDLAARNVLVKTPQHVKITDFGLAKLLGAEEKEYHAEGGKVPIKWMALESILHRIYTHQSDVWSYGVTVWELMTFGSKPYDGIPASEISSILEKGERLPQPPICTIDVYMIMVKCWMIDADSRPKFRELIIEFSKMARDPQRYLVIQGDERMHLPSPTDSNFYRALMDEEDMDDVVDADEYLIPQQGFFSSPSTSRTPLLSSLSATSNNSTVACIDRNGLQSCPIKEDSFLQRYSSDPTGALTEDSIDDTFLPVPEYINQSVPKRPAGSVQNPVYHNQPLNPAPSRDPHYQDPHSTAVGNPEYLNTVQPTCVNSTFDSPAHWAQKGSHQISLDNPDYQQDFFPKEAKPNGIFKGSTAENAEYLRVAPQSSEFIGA

Compound: C=CC(=O)Nc1cccc(Nc2nc(Nc3ccc(C4CCN(C)CC4)cc3OC)ncc2C(F)(F)F)c1 [Compound 29, N-(3-((2-((2-methoxy-4-(1-methylpiperidin-4-yl)phenyl)amino)-5-(trifluoromethyl)pyrimidin-4-yl)amino)phenyl)acrylamide]
- IC50 (wild-type EGFR (WT EGFR); Table 4, unit inferred): 11 nM
- IC50 [1]: 22.5 nM
- Selectivity (A431/H1975) [1]: 12.1
- IC50 [2]: 272 nM
- IC50 (EGFR T790M; Table 4, unit inferred): 0.32 nM
- Selectivity (WT/T790M) (EGFR T790M; Table 4): 34.4

Compound: C=CC(=O)Nc1cccc(Nc2nc(Nc3ccc(C4CCN(C(=O)CCF)CC4)cc3OC)ncc2C(F)(F)F)c1 [Compound 25, N-(3-((2-((4-(1-(3-fluoropropionyl)piperidin-4-yl)-2-methoxyphenyl)amino)-5-(trifluoromethyl)pyrimidin-4-yl)amino)phenyl)acrylamide]
- IC50 (wild-type EGFR (WT EGFR); Table 4, unit inferred): 683 nM
- IC50 [1]: 308 nM
- Selectivity (A431/H1975) [1]: 12.6
- IC50 [2]: 3890 nM
- IC50 (EGFR T790M; Table 4, unit inferred): 7.1 nM
- Selectivity (WT/T790M) (EGFR T790M; Table 4): 96.2

Compound: C=CC(=O)Nc1cccc(Nc2nc(Nc3ccc(C4CCN(C(C)=O)CC4)cc3OC)ncc2C(F)(F)F)n1 [Compound 4, N-(6-((2-((4-(1-acetylpiperidin-4-yl)-2-methoxyphenyl)amino)-5-(trifluoromethyl)pyrimidin-4-yl)amino)pyridin-2-yl)acrylamide]
- IC50 (wild-type EGFR (WT EGFR); Table 3): 423 nM
- IC50 (wild-type EGFR (WT EGFR); Table 7): 423 nM
- IC50 (EGFR (d746-750); Table 7): 40 nM
- Selectivity WT/d746-750 (EGFR (d746-750); Table 7): 10.6
- IC50 (EGFR L858R; Table 7): 82 nM
- Selectivity WT/L858R (EGFR L858R; Table 7): 5.2
- IC50 (EGFR T790M-L858R; Table 7): 5.2 nM
- Selectivity WT/T790M-L858R (EGFR T790M-L858R; Table 7): 81.3
- IC50 (EGFR T790M; Table 3): 7.2 nM
- Selectivity (WT/T790M) (EGFR T790M; Table 3): 58.8
- IC50 (EGFR T790M; Table 7): 7.2 nM
- Selectivity (WT/T790M) (EGFR T790M; Table 7): 58.8

Compound: C=CC(=O)Nc1cccc(Nc2nc(Nc3ccc(C4CCN(CCF)C(=O)C4)cc3OC)ncc2C(F)(F)F)c1 (stereo not shown) [Compound 23, N-(3-((2-((4-(1-(2-fluoroethyl)-2-oxopiperidin-4-yl)-2-methoxyphenyl)amino)-5-(trifluoromethyl)pyrimidin-4-yl)amino)phenyl)acrylamide]
- IC50 (wild-type EGFR (WT EGFR); Table 4, unit inferred): 294 nM
- IC50 (EGFR T790M; Table 4, unit inferred): 3.9 nM
- Selectivity (WT/T790M) (EGFR T790M; Table 4): 75.4

Second part, led by results:

- IC50 [1]: 326 nM
- IC50 [2]: 7000 nM
Compound: C=CC(=O)Nc1cccc(Nc2nc(Nc3ccc(OC)c4c3CN(C(C)=O)C4)ncc2C(F)(F)F)c1 [Compound 36, N-(3-((2-((2-acetyl-7-methoxyisoindolin-4-yl)amino)-5-(trifluoromethyl)pyrimidin-4-yl)amino)phenyl)acrylamide]
- Selectivity (A431/H1975) [1]: 21.5

- IC50 (wild-type EGFR (WT EGFR); Table 1): 699 nM
- IC50 (wild-type EGFR (WT EGFR); Table 5): 733 nM
- IC50 (EGFR (d746-750); Table 5): 51.4 nM
- Selectivity WT/d746-750 (EGFR (d746-750); Table 5): 14.2
- IC50 (EGFR L858R; Table 5): 154 nM
- Selectivity WT/L858R (EGFR L858R; Table 5): 4.8
- IC50 (EGFR T790M-L858R; Table 5): 6 nM
- Selectivity WT/T790M-L858R (EGFR T790M-L858R; Table 5): 122.9
- IC50 (EGFR T790M; Table 1): 4.7 nM
- Selectivity (WT/T790M) (EGFR T790M; Table 1): 148.7
Compound: C=CC(=O)Nc1cccc(Nc2nc(Nc3ccc(C4=CCN(C(C)=O)CC4)cc3OC)ncc2C(F)(F)F)c1 [Compound 3, N-(3-((2-((4-(1-acetyl-1,2,3,6-tetrahydropyridin-4-yl)-2-methoxyphenyl)amino)-5-(trifluoromethyl)pyrimidin-4-yl)amino)phenyl)acrylamide]

- IC50 (wild-type EGFR (WT EGFR); Table 4, unit inferred): 1280 nM
- IC50 (EGFR T790M; Table 4, unit inferred): 9.9 nM
- Selectivity (WT/T790M) (EGFR T790M; Table 4): 129.7
Compound: C=CC(=O)Nc1cccc(Nc2nc(Nc3cccc4c3CCN(C(C)=O)C4)ncc2C(F)(F)F)c1 [Compound 37, N-(3-((2-((2-acetyl-1,2,3,4-tetrahydroisoquinoline-5-yl)amino)-5-(trifluoromethyl)pyrimidin-4-yl)amino)phenyl)acrylamide]
